According to article PMC6429214, “Design, Synthesis and Biological Evaluation of Isoxazole-Based CK1 Inhibitors Modified with Chiral Pyrrolidine Scaffolds” (Molecules, 2019):
Structures can show the parent of a compound that is named as a salt.

Assays:
[1] = biological target: T1, human CK1δ transcription variant 1 (Homo sapiens, UniProt P48730); assay: in-vitro kinase assay CK1δ; type: biochemical; conditions: 10 µM ATP, mean ± SD, n = 3; for remaining activity at 10 µM: read-out: CK1δ Residual Activity [%] at 10 µM ± SD
T1 construct: made in house; own knowledge
Excerpt: Human CK1δ transcription variant 1 (CK1δ TV1_NM_001893.4) has been amplified from the cDNA obtained from HT1080 cell line, using CK1δ_forward-primer: 5′-GGATCCATGGAGCTGAGAGTCGGGAACAG-3′ and CK1δ_reverse primer: 5′-GGATCCTCATCGGTGCACGACAGACTGA-3′. The CK1δ DNA construct was cloned into pSC-A cloning vector (Agilent technologies, Munich, Germany) with BamHI enzyme, to generate plasmids pGEX6-P3-GST-CK1δ TV1 (FP1417). Overexpression and purification of GST-CK1δ TV1 protein has been performed as described before.
(§1) In vitro kinase assays have been performed to both screen, as well as to calculate IC50 values of the compounds for CK1δ and ε. Each reaction was carried out using 2 μCi ^32P-γ-ATP in kinase buffer containing 25 mM Tris-HCl (pH = 7.5), 10 mM MgCl2, 100 µM EDTA, and 10 µM ATP. […] Recombinant human CK1δ transcription variant 1 (expressed and purified as GST fusion protein as described earlier) and human GST-CK1ε (PV3500; Invitrogen) were used as sources of enzyme, while α-casein (C6780; Sigma-Aldrich) was used as substrate. Kinase reactions were incubated for 30 min at 30 °C and then stopped with loading dye (50 mM Tris-HCl (pH = 6.8), 5% (v/v) β-mercaptoethanol (MSH), 10% (v/v) glycerol, 2% (w/v) sodium dodecyl sulfate (SDS), 0.1% (w/v) bromphenol blue). Subsequently, reactions were separated by sodium dodecyl sulfate polyacrylamide gel electrophoresis (SDS-PAGE) and phosphorylated protein bands were visualized on dried gels by autoradiography. The phosphorylated substrate protein bands were excised, and phosphorylation was quantified by Cherenkov counting. Dose-response analyses and calculation of IC50 values were carried out using GraphPad Prism 6 statistical software (San Diego, CA, USA).

human GST-CK1ε = biological target: T2, human GST-CK1ε (Homo sapiens, UniProt P49674); assay: in-vitro kinase assay CK1ε; type: biochemical; conditions: 10 µM ATP, mean ± SD, n = 3; for remaining activity at 10 µM: read-out: CK1ε Residual Activity [%] at 10 µM ± SD
T2 construct: purchased Invitrogen PV3500
Protocol: as §1

[2] = MTT cell viability assay MCF-7; type: cell-based, human; conditions: human, MCF-7 cells, mean ± SD
Protocol: (§2) The human colon adenocarcinoma cell line HT-29 was grown in McCoy’s 5A medium, whereas MCF7 cells were grown in DMEM medium. All media were supplemented with 10% fetal calf serum (FCS), 100 units/mL penicillin, 100 µg/mL streptomycin and 2 mM glutamine. All cells were grown at 37 °C in a humidified 5% carbon dioxide atmosphere.
(§3) In order to analyze the effects of selected inhibitors on the cell viability of HT-29 and MCF7 cells, MTT assays were performed. 1 × 10^4 cells/well were seeded in 96-well cell culture plates. After 24 h cells were treated with increasing concentrations of the indicated inhibitor compounds, with untreated and DMSO-treated cells as control. After an incubation period of 48 h, 10 µL of MTT solution (5 mg/mL in PBS) were added and cells were incubated for 4 h. MTT-containing medium was carefully removed and 100 µL acidic isopropanol (0.04 N HCl in isopropanol) per well were added. To dissolve formazan crystals, plates were shaken for 30 min on an orbital shaker in the dark. Finally, dissolved crystals were measured spectrophotometrically at 570 nm. All experiments were performed in triplicate with four technical replicates per assay. Results were normalized considering the mean optical density value of control wells as 100%. GraphPad Prism 6 software (San Diego, CA, USA) was used to calculate EC50 values.

[3] = MTT cell viability assay HT-29; type: cell-based, human; conditions: human, HT-29 cells, mean ± SD
Protocol: as §2, §3

MCF-7 cells = assay: MTT cell viability assay MCF-7; type: cell-based, human; conditions: mean ± SD
Protocol: as §2, §3

HT-29 cells = assay: MTT cell viability assay HT-29; type: cell-based, human; conditions: mean ± SD
Protocol: as §2, §3

[4] = LC-MS of aqueous solutions with and without PEG; type: physicochemical; conditions: LC-MS over 7 days, not in solutions without PEG
Excerpt: Since all analytical data for the originally employed inhibitors was consistent with the given structures, we postulate that the incorporation of an additional methylene group occurred via spontaneous Pictet-Spengler cyclization during crystallization. In line with this notion, PEG, which has been used in our soaking solutions, is known to generate formaldehyde traces that have been shown in the past to affect the derivatization of both, proteins and ligands. To further corroborate this hypothesis, we examined whether simple exposure of 29d/e to formaldehyde would give rise to the same Pictet-Spengler products 31a/b (Scheme 5). Indeed, when compounds 29d/e were treated with formaldehyde at room temperature 31a/b were formed readily and the obtained spectroscopic data was consistent with the predicted Pictet-Spengler products. In addition, aqueous solutions of 29d and 29e with and without PEG were analyzed by liquid chromatography-mass spectrometry (LC-MS) over a period of 7 days.
LC-MS was performed with a Bruker Esquire ~LC ion trap mass spectrometer (Bremen, Germany) in the positive ion mode (dry gas 9 L/min, nebulizer 35 psi, drying temperature 350 °C) after chromatographic separation using an Agilent 1100 HPLC system (Waldbronn, Germany) with a RP-8 column (Agilent Eclipse XDB-C8, 150 × 4.6 mm, 5 μm) and a 0.1% acetic acid/acetonitrile gradient.

IRAK4 = conditions: cited from earlier work
p38α = system: p38α; parameters: method as in PMID 18763757; conditions: cited from earlier work
Trk = system: Trk; parameters: method as in PMID 20336234; conditions: cited from earlier work
CK1δ = system: CK1δ; parameters: method as in PMID 19591487; conditions: cited from earlier work

T2 sequence (P49674 whole entry): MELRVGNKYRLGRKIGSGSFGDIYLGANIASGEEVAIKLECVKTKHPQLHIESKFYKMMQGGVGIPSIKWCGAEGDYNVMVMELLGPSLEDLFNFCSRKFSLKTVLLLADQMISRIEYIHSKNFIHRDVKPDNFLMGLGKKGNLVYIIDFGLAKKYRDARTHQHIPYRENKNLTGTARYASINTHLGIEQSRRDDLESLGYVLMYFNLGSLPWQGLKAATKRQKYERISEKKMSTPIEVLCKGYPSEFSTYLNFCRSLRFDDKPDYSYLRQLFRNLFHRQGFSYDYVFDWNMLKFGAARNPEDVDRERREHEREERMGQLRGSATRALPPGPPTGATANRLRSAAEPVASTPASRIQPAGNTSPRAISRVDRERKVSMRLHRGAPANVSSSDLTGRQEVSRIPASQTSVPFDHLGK

## COc1ccc(-c2cc(C(=O)Nc3cc(-c4c(-c5ccc(F)cc5)noc4C(C)C)ccn3)n(CC3NCC(O)C3O)c2)cc1 (centres unmarked) (as salt: trifluoroacetate) [29d]
other
  melting point: 191 to 193 °C

## COc1ccc(-c2cc(C(=O)Nc3cc(-c4c(-c5ccc(F)cc5)noc4C(C)C)ccn3)n(CC3NCC(O)C3O)c2)cc1 (centres unmarked) (as salt: trifluoroacetate) [29e]
other
  melting point: 188 to 191 °C

## COc1ccc(-c2cc(C(=O)Nc3cc(-c4c(-c5ccc(F)cc5)noc4C(C)C)ccn3)n(C)c2)cc1 [28a, N-{4-[3-(4-Fluorophenyl)-5-isopropylisoxazol-4-yl]pyridin-2-yl}-4-(4-methoxyphenyl)-1-methyl-1H-pyrrole-2-carboxamide]
[1]; 10 µM compound
  remaining activity at 10 µM: 48 ± 7%
Human GST-CK1ε; 10 µM compound
  remaining activity at 10 µM: 70 ± 21%
[2]
  viability at 48 h, 5 µM: 103 ± 16%
  viability at 48 h, 10 µM: 88 ± 9%
  viability at 48 h, 20 µM: 54 ± 5%
[3]
  viability at 48 h, 5 µM: 111 ± 19%
  viability at 48 h, 10 µM: 98 ± 22%
  viability at 48 h, 20 µM: 78 ± 10%
other
  melting point: 157 to 158 °C

## COc1ccc(-c2cc(C(=O)Nc3cc(-c4c(-c5ccc(F)cc5)noc4C(C)C)ccn3)n(C)c2)c(OC)c1 [28b, 4-(2,4-Dimethoxyphenyl)-N-{4-[3-(4-fluorophenyl)-5-isopropylisoxazol-4-yl]pyridin-2-yl}-1-methyl-1H-pyrrole-2-carboxamide]
[1]; 10 µM compound
  remaining activity at 10 µM: 48 ± 4%
Human GST-CK1ε; 10 µM compound
  remaining activity at 10 µM: 47 ± 11%
[2]
  viability at 48 h, 5 µM: 89 ± 13%
  viability at 48 h, 10 µM: 84 ± 11%
  viability at 48 h, 20 µM: 79 ± 12%
[3]
  viability at 48 h, 5 µM: 94 ± 23%
  viability at 48 h, 10 µM: 59 ± 14%
  viability at 48 h, 20 µM: 52 ± 10%

## CC(C)c1onc(-c2ccc(F)cc2)c1-c1ccnc(NC(=O)c2cccn2C[C@H]2NC[C@H](O)[C@@H]2O)c1 [29c, (2R,3R,4S)-2-{[2-({4-[3-(4-Fluorophenyl)-5-isopropylisoxazol-4-yl]pyridin-2-yl}carbamoyl)-1H-pyrrol-1-yl]methyl}-3,4-dihydroxypyrrolidin-1-ium trifluoroacetate]
[1]
  IC50: 0.45 ± 0.07 µM
[1]; 10 µM compound
  remaining activity at 10 µM: 7.7 ± 0.2%
Human GST-CK1ε
  IC50: 1.5 ± 0.3 µM
Human GST-CK1ε; 10 µM compound
  remaining activity at 10 µM: 18 ± 1%
[2]
  viability at 48 h, 5 µM: 90 ± 10%
  viability at 48 h, 10 µM: 81 ± 5%
MCF-7 cells; Homo sapiens, MCF7, 48 h
  EC50: 39 ± 12 µM
[3]
  viability at 48 h, 5 µM: 80 ± 16%
  viability at 48 h, 10 µM: 78 ± 11%
HT-29 cells; Homo sapiens, HT-29, 48 h
  EC50: 24 ± 6 µM

## COc1ccc(-c2cc(C(=O)Nc3cc(-c4c(-c5ccc(F)cc5)noc4C(C)C)ccn3)n(CC3NCC(O)C3O)c2)cc1 (centres unmarked) [29e]
[1]
  IC50: 0.047 ± 0.004 µM
[1]; 10 µM compound
  CK1δ Residual Activity [%] at 10 µM ± SD: 3.4 ± 0.7%
Human GST-CK1ε
  IC50: 0.063 ± 0.009 µM
Human GST-CK1ε; 10 µM compound
  CK1ε Residual Activity [%] at 10 µM ± SD: 14 ± 3%
MCF-7 cells; 5 µM, 48 h
  MCF-7 Cell Viability [%] 5 µM: 90 ± 27%
MCF-7 cells; 10 µM, 48 h
  MCF-7 Cell Viability [%] 10 µM: 58 ± 18%
MCF-7 cells; 20 µM, 48 h
  MCF-7 Cell Viability [%] 20 µM: 8.0 ± 3.4%
MCF-7 cells; 48 h
  EC50: 10 ± 2 µM
HT-29 cells; 5 µM, 48 h
  HT-29 Cell Viability [%] 5 µM: 75 ± 13%
HT-29 cells; 10 µM, 48 h
  HT-29 Cell Viability [%] 10 µM: 42 ± 10%
HT-29 cells; 20 µM, 48 h
  HT-29 Cell Viability [%] 20 µM: 11 ± 3%
HT-29 cells; 48 h
  EC50: 8.8 ± 0.8 µM
[4]
  formation of Pictet-Spengler products in aqueous solution with PEG: significant product formation

## COc1ccc(-c2cc(C(=O)Nc3cc(-c4c(-c5ccc(F)cc5)noc4C(C)C)ccn3)n(C[C@H]3NC[C@H](O)[C@@H]3O)c2)c(OC)c1 [29f]
[1]
  IC50: 0.037 ± 0.004 µM
[1]; 10 µM compound
  remaining activity at 10 µM: 2.8 ± 0.5%
Human GST-CK1ε
  IC50: 0.1 ± 0.014 µM
Human GST-CK1ε; 10 µM compound
  remaining activity at 10 µM: 9.7 ± 1.6%
MCF-7 cells; Homo sapiens, MCF7, 48 h, 5 µM
  viability at 5 µM: 87 ± 5%
MCF-7 cells; Homo sapiens, MCF7, 48 h, 10 µM
  viability at 10 µM: 33 ± 7%
MCF-7 cells; Homo sapiens, MCF7, 48 h, 20 µM
  viability at 20 µM: 3.9 ± 0.2%
MCF-7 cells; Homo sapiens, MCF7, 48 h
  EC50: 9.6 ± 0.8 µM
HT-29 cells; Homo sapiens, HT-29, 48 h, 5 µM
  viability at 5 µM: 50 ± 10%
HT-29 cells; Homo sapiens, HT-29, 48 h, 10 µM
  viability at 10 µM: 25 ± 5%
HT-29 cells; Homo sapiens, HT-29, 48 h, 20 µM
  viability at 20 µM: 9.4 ± 3%
HT-29 cells; Homo sapiens, HT-29, 48 h
  EC50: 5.4 ± 0.4 µM

## COc1ccc(-c2cc(C(=O)Nc3cc(-c4c(-c5ccc(F)cc5)noc4C(C)C)ccn3)n3c2CN2C[C@H](O)[C@H](O)[C@H]2C3)cc1 [31a, (1R,2S,10aR)-N-{4-[3-(4-Fluorophenyl)-5-isopropylisoxazol-4-yl]pyridin-2-yl}-1,2-dihydroxy-6-(4-methoxyphenyl)-2,3,10,10a-tetrahydro-1H,5H-dipyrrolo[1,2-a:1’,2’-d]pyrazine-8-carboxamide]
[1]
  IC50: 0.011 ± 0.001 µM
Human GST-CK1ε
  IC50: 0.056 ± 0.005 µM
MCF-7 cells; 48 h
  EC50: 1.3 ± 0.2 µM
MCF-7 cells; Homo sapiens, MCF7, 48 h
  EC50: < 2 µM
HT-29 cells; 48 h
  EC50: 1.1 ± 0.1 µM
HT-29 cells; Homo sapiens, HT-29, 48 h
  EC50: < 2 µM

## COc1ccc(-c2cc(C(=O)Nc3cc(-c4c(-c5ccc(F)cc5)noc4C(C)C)ccn3)n3c2CN2C[C@@H](O)[C@@H](O)[C@@H]2C3)cc1 [31b, (1S,2R,10aS)-N-{4-[3-(4-Fluorophenyl)-5-isopropylisoxazol-4-yl]pyridin-2-yl}-1,2-dihydroxy-6-(4-methoxyphenyl)-2,3,10,10a-tetrahydro-1H,5H-dipyrrolo[1,2-a:1’,2’-d]pyrazine-8-carboxamide]
[1]
  IC50: 0.024 ± 0.004 µM
Human GST-CK1ε
  IC50: 0.196 ± 0.026 µM
MCF-7 cells; 48 h
  EC50: 1.9 ± 0.3 µM
MCF-7 cells; Homo sapiens, MCF7, 48 h
  EC50: < 2 µM
HT-29 cells; 48 h
  EC50: 1.4 ± 0.2 µM
HT-29 cells; Homo sapiens, HT-29, 48 h
  EC50: < 2 µM

## Cc1cc(Nc2ncc(-c3nc4ccncc4s3)c(N[C@@H]3C[C@H](CO)[C@@H](O)[C@H]3O)n2)cc(C)n1 [compound 4]
IRAK4
  IC50: 0.0003 µM

## CC(C)C(C)Nc1cc(-c2[nH]c(SC[C@@H](O)CO)nc2-c2ccc(F)cc2)ccn1 (some centres unmarked) [compound 5]
p38α
  IC50: 0.015 µM

## C[C@]12O[C@H](C[C@]1(O)CO)n1c3ccccc3c3c4c(c5c6ccccc6n2c5c31)CNC4=O [compound 7]
Trk
  IC50: 0.025 µM

## COc1ccc(/C=C/C(=O)Nc2cc(-c3c(-c4ccc(F)cc4)noc3C(C)C)ccn2)c(OC)c1 [compound 8]
CK1δ
  IC50: 0.033 µM
